Results as given in patent publication US6576663B2, “6-Keto prostaglandin F1α and analogs for treating dry eye” (Alcon, Inc., priority 1999, dated 2003).

Experiments:
[1] = test system: human conjuctival epithelium; experiment: mucin production in human conjuctival epithelium; type: cell-based
[2] = test system: intestinal epithelial cells; settings: released by intestinal epithelial cells in response to hypoxia; cited from earlier work

Q: For `CCCCC[C@H](O)/C=C/[C@@H]1[C@@H](CC(=O)CCCCC(=O)O)[C@@H](O)C[C@H]1O` [6-keto PGF1α, 6-keto-PGF1α], which mucin production [1] is on record?
A: stimulate mucin production

Q: And the chloride secretagogue activity [2]?
A: potent chloride secretagogue
